In ChEMBL document CHEMBL1159290, “Longicin and goniothalamicinone: novel bioactive monotetrahydrofuran acetogenins from Asimina longifolia” (J Nat Prod, 1995):
≈ marks a conversion by molar mass, not a printed value.

Assays:
[1] = system: PC-3; assay: Cytotoxicity against human PC3 cells after 7 days by MTT assay; assay type: functional; details: PC-3, 168 h, read-out: ED50 (the source's name)
[2] = Toxicity to brine shrimp; assay type: organism-based; details: artemia, in vivo
[3] = system: MCF7; assay: Cytotoxicity against human MCF7 cells after 7 days by MTT assay; assay type: functional; details: MCF7, 168 h, read-out: ED50 (the source's name)
[4] = system: A549; assay: Cytotoxicity against human A549 cells after 7 days by MTT assay; assay type: functional
[5] = system: MIA PaCa-2; assay: Cytotoxicity against human MIAPaCa2 cells after 7 days by MTT assay; assay type: functional; details: for EC50: Homo sapiens, MIA PaCa-2, 168 h, read-out: ED50 (the source's name)
[6] = system: HT-29; assay: Cytotoxicity against human HT-29 cells after 7 days by MTT assay; assay type: functional; details: for EC50: Homo sapiens, HT-29, 168 h, read-out: ED50 (the source's name)
[7] = system: A498; assay: Cytotoxicity against human A498 cells after 7 days by MTT assay; assay type: functional; details: for EC50: Homo sapiens, A498, 168 h, read-out: ED50 (the source's name)

Row | SMILES | EC50 [1] [µg/mL] | LC50 [2] [µg/mL] | EC50 [3] [µg/mL] | ED50 [4] | ED50 [5] | EC50 [6] [µg/mL] | EC50 [7] [µg/mL] | EC50 [5] [µg/mL] | ED50 [6] | EC50 ([4]; Homo sapiens, A549, 168 h, read-out: ED50 (the source's name)) [µg/mL] | ED50 [7] [×10⁻⁴ ug/ml]
1 | CCCCCCCCCCCCCC[C@H](O)[C@H]1CC[C@H]([C@H](O)CC[C@H](O)CCCCC[C@@H]2CC(CC(C)=O)C(=O)O2)O1 (mixture of isomers) | 0.201 | 0.46 | 0.186 | 1.23 ×10⁻⁴ ug/ml | 2.37 ×10⁻⁴ ug/ml | 0.235 | 0.172 |  |  |  | 
2 | CCCCCCCCCCCCCC[C@@H](O)[C@H]1CC[C@H]([C@H](O)CC[C@H](O)CCCCC[C@@H]2CC(CC(C)=O)C(=O)O2)O1 (mixture of isomers) | 0.137 | 0.14 | 0.967 | 2.06 ×10⁻⁵ ug/ml |  |  | 0.291 | 0.00133 | 4.05 ×10⁻⁴ ug/ml |  | 
3 | COc1cccc2c1C(=O)c1c(O)c3c(c(O)c1C2=O)C[C@@](O)(C(=O)CO)C[C@@H]3O[C@H]1C[C@H](N)[C@H](O)[C@H](C)O1 [DOXORUBICIN] |  |  | 0.329 (≈ 605 nM) |  |  | 0.0116 (≈ 21.3 nM) | 0.00197 (≈ 3.62 nM) | 0.00195 (≈ 3.59 nM) |  | 0.00341 (≈ 6.27 nM) | 
4 | CCCCCCCCCCCCCC[C@H](O)[C@H]1CC[C@H]([C@H](O)CC[C@H](O)CCCCC[C@@H](O)CC2=C[C@H](C)OC2=O)O1 [LONGICIN] | 0.00426 (≈ 7.14 nM) | 0.11 (≈ 184 nM) | > 1 | 1.77 ×10⁻⁶ ug/ml | 1.25 ×10⁻⁹ ug/ml |  |  |  | 2.4 ×10⁻⁵ ug/ml |  | 1.99
